How the values were obtained:
[1] = test system: AB-PINACA antibody (raised against immunogen 2 of Example 6); experiment: AB-PINACA ELISA, final validated kit with Tracer-2 (Example 10), specificity; format: binding; conditions: AB-PINACA N-Pentanoic acid = 100
Experimental: A microtitre plates was precoated with AB-PINACA antibody (raised against immunogen 2 of Example 6). Pinaca derivative (antigen), if present in the sample competes with the horseradish peroxidase labelled AB-PINACA (enzyme labelled antigen, herein Tracer-2 of Example 8) for a limited number of antibody sites on the microtitre plate. After incubation at room temperature to allow a competition reaction to take place, the microtitre plate was washed to remove excess reagents. The enzyme substrate ([…]) was added. After an incubation period to allow maximum colour development, the colour reaction was stopped by the addition of acid. This produces a colour change from blue to yellow, and the absorbances are read at 450 nm. A standard curve was then constructed to determine the Pinaca derivative's concentration in the sample.
All reagents were left to reach room temperature (+15 to +25° C.) prior to use. In order to minimise edge effects microtitre plate was sealed with an adhesive plate sealer.
The assay was performed in duplicate. The following layout was used for a test plate where each box represents 2 wells.
• a) The following was pipetted into the appropriate wells of the microtitre plate:
• b) The microtitre plate was gently tapped plate from side to side for a few seconds. • c) The microtitre plate was covered with a plate sealer before incubating for 30 minutes at room temperature (+15 to +25° C.) in the dark. • d) The plate was inverted and the liquid was tapped out. • e) The plate was washed 6 times with diluted wash buffer (ensuring all wells were filled), over a 10-15 minute period. After the final wash the liquid was discarded and the plate was tapped onto lint free tissue paper until completely dry. • f) Immediately after washing, 125 μL of the one shot substrate II solution was pipetted into each well using a multichannel pipette. The microtitre plate was gently tapped from side to side and incubated for (20±2 minutes) at room temperature (+15 to +25° C.) in the dark. • g) The colour reaction was stopped by the addition of 100 μL of stop solution per well. A colour change from blue to yellow should be evident. • h) The optical density was measured at 450 nm within 10 minutes of stopping the colour reaction. The use of a 630 nm filter is recommended as the reference wavelength, if available. Standard Curve and Interpretation of Results • a) The mean absorbance of the standards, controls and samples were calculated. • b) The absorbances of standards against log10 (standard concentration) were plotted. • c) The control and sample concentrations were read from the standard curve. • d) To obtain concentrations for urine samples in ng/mL, the results were multiplied by 3 to take into account the dilution factor. • e) To obtain concentrations for whole blood samples in ng/mL, the results were multiplied by 4 to take into account the dilution factor. • f) It is recommended that a 4 parameter curve fit method is used when generating the standard curve. Limits of Detection

[2] = test system: Antibody to AB-Pinaca-KLH (raised against immunogen 2 of Example 6); experiment: Competitive ELISA characterising antibodies to AB-Pinaca-KLH with Tracer-1 (Example 9); format: binding; conditions: for % CR (percentage cross-reactivity): AB-Pinaca = 100.00; for IC50 (standard concentration which produces 50% inhibition of maximal signal): calibration curves 0-20 ng/ml
Experimental: The wells of an enhanced binding 96 well polystyrene microtitre plate were coated with IgG fraction of antiserum raised to AB-Pinaca-KLH (Immunogen 2 of Example 6), diluted in 10 mM Tris, pH8.5 (125 μl/well). The appropriate antibody coating dilution was determined using standard ELISA checkerboard techniques. The plate was incubated for 2 hours at 37° C., washed 4 times over 10 minutes with Tris buffered saline containing Tween 20 (TBST) and tapped dry. Standard solutions of AB-Pinaca pentanoic acid were prepared in TBST at 0, 0.31, 0.63, 1.25, 2.50, 5.0, 10.0 and 20.0 ng/ml, and 50 μl of each was added to the appropriate wells. 75 μl of Tracer-1 (Example 7) diluted in Tris buffer (pH 7.2) containing EDTA, D-mannitol, sucrose, thimerosal and BSA, was added to each of the wells. The appropriate dilution of tracer was also determined using standard ELISA checkerboard techniques. The plate was incubated at 25° C. for 1 hour. Excess unbound tracer was removed by washing 6 times over a 10-15 minute period with TBST and tapped dry. 125 μl of tetramethylbenzidine (TMB) substrate solution was added to each well of the plate that was then incubated for 20 minutes in the dark at room temperature. The reaction was terminated by addition of 125 μl 0.2 M H2SO4 to each well. The absorbance was measured at 450 nm using a microtitre plate reader. In order to determine the specificity of the competitive ELISAs, standard solutions of a range of structurally similar compounds were prepared in TBST. Using calibration curves generated from these compounds (0-20 ng/ml), the cross-reactivity was determined.

SMILES	% Cross-Reactivity [1]	% CR (percentage cross-reactivity) [2]	IC50 (standard concentration which produces 50% inhibition of maximal signal) [2]	B/Bo (Percentage B/B0) ([2]; standard conc 0.31 ng/ml)	OD (absorbance at 450 nm) ([2]; standard conc 0.31 ng/ml)	B/Bo (Percentage B/B0) ([2]; standard conc 0.63 ng/ml)	OD (absorbance at 450 nm) ([2]; standard conc 0.63 ng/ml)	B/Bo (Percentage B/B0) ([2]; standard conc 1.25 ng/ml)	OD (absorbance at 450 nm) ([2]; standard conc 1.25 ng/ml)	B/Bo (Percentage B/B0) ([2]; standard conc 2.50 ng/ml)	OD (absorbance at 450 nm) ([2]; standard conc 2.50 ng/ml)	B/Bo (Percentage B/B0) ([2]; standard conc 5.00 ng/ml)	OD (absorbance at 450 nm) ([2]; standard conc 5.00 ng/ml)	B/Bo (Percentage B/B0) ([2]; standard conc 10.00 ng/ml)	OD (absorbance at 450 nm) ([2]; standard conc 10.00 ng/ml)	B/Bo (Percentage B/B0) ([2]; standard conc 20.00 ng/ml)	OD (absorbance at 450 nm) ([2]; standard conc 20.00 ng/ml)
CC(C)C(NC(=O)c1nn(CCCCC(=O)O)c2ccccc12)C(N)=O (stereo not shown) [AB-Pinaca pentanoic acid]	100%	64.25%	1.723 ng/mL	77.4%	1.698	69.7%	1.529	55.8%	1.223	42.2%	0.926	30.7%	0.673	21.2%	0.465	14.5%	0.317
CCCCCn1nc(C(=O)NC(C(N)=O)C(C)C)c2ccccc21 (stereo not shown) [AB-Pinaca, N-(1-amino-3-methyl-1-oxobutan-2-yl)-1-pentyl-1H-indazole-3-carboxamide]	52.4%	100.00%	1.107 ng/mL	70.1%	1.532	60.7%	1.325	47.4%	1.036	35.6%	0.778	27.2%	0.593	18.5%	0.404	12.2%	0.267

Source: patent US10509046B2, “Detection of indazole synthetic cannabinoids” (Randox Laboratories Limited, priority 2014, dated 2019)
